From article PMC10022577 (Chem, 2023)

Target: T1, AlbS (albireticulene synthase) (Streptomyces albireticuli, UniProt A0A2A2D8W5)
T1 sequence (A0A2A2D8W5 1-369): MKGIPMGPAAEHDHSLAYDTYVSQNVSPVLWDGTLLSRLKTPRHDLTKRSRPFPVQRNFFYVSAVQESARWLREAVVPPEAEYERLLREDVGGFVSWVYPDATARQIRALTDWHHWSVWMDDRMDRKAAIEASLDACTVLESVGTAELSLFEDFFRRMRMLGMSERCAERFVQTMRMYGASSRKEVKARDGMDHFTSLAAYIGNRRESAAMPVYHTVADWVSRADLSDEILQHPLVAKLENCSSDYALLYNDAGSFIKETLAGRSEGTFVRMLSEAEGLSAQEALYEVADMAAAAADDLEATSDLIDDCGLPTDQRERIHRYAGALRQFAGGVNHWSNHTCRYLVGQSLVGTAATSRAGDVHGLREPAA
Assay: GC-MS product analysis
Assay type: biochemical
Conditions: products: five sesquiterpenes (3-7)

## CC(C)=CCC/C(C)=C/CC/C(C)=C/COP(=O)(O)OP(=O)(O)O [FPP]
  GC-MS product analysis: GC-MS analysis revealed that FPP was converted into five sesquiterpenes
